Drawing on US8269017B2, “Compounds for the treatment of proliferative disorders” (Synta Pharmaceuticals Corporation, priority 2005, dated 2012), this text covers IC50 for 10 molecules.

For assay [1], the system named is HL-60 (T-cell leukemia). The assay is described as follows: In vitro cytotoxicity, MTS assay, HL-60. The class given is cell-based, human. Here is the method:
(§1) The in vitro cytotoxicity of the compounds of the invention was determined in the following human cell lines: HL-60 (T-cell leukemia), MDA-435 and MCF-7 (human breast carcinoma), NCI-H460 and H29 (colon carcinoma), DU145 (prostate carcinoma), and MES-SA and MES-SA/DX5 (uterine sarcoma). MES-SA is a model of uterine sarcoma, and the cell are sensitive to a number of chemotherapeutic agents including doxorubicin, dactinomycin, mitomycin C, taxol and bleomycin, but resistant to vinblastine and cisplatin. MES-SA/Dx5 was established in the presence of increasing concentrations of doxorubicin. […] All cells were purchased from ATCC.
(§2) The cell lines were maintained in RPMI1640 (GIBCO) supplemented with 10% FCS, 100 units/mL penicillin, 100 ug/ml streptomycin, and 2 mM L-glutamine. Cells were split every third day and diluted to a concentration of 2×10^5 cells/mL one day before the experiment was performed. All experiments were performed on exponentially growing cell cultures. Cell densities were 2.5×10^4 cells/mL in all experiments.
(§3) Compounds of the invention were prepared by dissolving the compound at a concentration of 10 mM in 100% DMSO. Final concentrations 10, 1, 0.1, 0.01 and 0.001 μM were obtained by diluting the stock solution directly into the tissue culture medium.

In assay [2] the test system is MES-SA (uterine sarcoma). The assay is described as follows: In vitro cytotoxicity, MTS assay, MES-SA. The class given is cell-based, human. The settings on record: MES-SA (Uterine Carcinoma). Here is the method: as §1, §2, §3
On the technique in general: Formazan colour is commonly taken as a measure of viable cells.

For assay [3], the system named is MES-SA/DX5 (uterine sarcoma, MDR-1). The assay is described as follows: cells. The class given is cell-based. The settings on record: MES/DX5 (MDR-1), MTS assay. On the procedure: as §1, §2, §3
[4] abbreviates: Homo sapiens, HL-60, HL60 (Leukemia), 72 hours, read-out: IC50.
The mark [5] stands for this setting: Homo sapiens, 72 hours, read-out: IC50.
[6] abbreviates: Homo sapiens, HL-60, 72 h, HL60 (Leukemia).

Structures can show the parent of a compound that is named as a salt. Where two headings read alike, the source gives them in different places.

In general, IC50 refers to the concentration that inhibits the measured activity by half. In the case of `COc1ccc(-c2cnoc2-c2cc(OC)c(OC)c(OC)c2)cc1NC(=O)C(N)CO` (stereo not drawn) [Compound 170, 2-amino-3-hydroxy-N-(2-methoxy-5-[5-(3,4,5-trimethoxy-phenyl)-isoxazol-4-yl)-phenyl)propanamide hydrochloride], the IC50 was 2 nM in assay [1] (setting [4]); 9 nM in assay [2] (setting [5]); 3 nM in assay [3] (Homo sapiens, MDR1, 72 h).

Take `COc1ccc(-c2cnoc2-c2cc(OC)c(OC)c(OC)c2)cc1NC(=O)C(C)N` (stereo not drawn) [Compound 171, 2-amino-N-(2-methoxy-5-[5-(3,4,5-trimethoxy-phenyl)-isoxazol-4-yl)-phenyl)propanamide]: the IC50 in assay [1] (HL60 (Leukemia), 72 hours) worked out at 5 nM; in assay [2] (72 hours), 2 nM; in assay [3] (72 hours), 4 nM.

As for `COc1ccc(-c2cnoc2-c2cc(OC)c(OC)c(OC)c2)cc1NC(=O)C(N)CCSC` (stereo not drawn) [Compound 172, 2-amino-N-(2-methoxy-5-(5-(3,4,5-trimethoxyphenyl)isoxazol-4-yl)phenyl)-4-(methylthio)butanamide Hydrochloride], the IC50 in assay [1] (setting [4]) was found to be 5 nM; in assay [2] (setting [5]), 0.1 nM; in assay [3] (Homo sapiens, MDR1, 72 h), 0.1 nM.

With `CCC(N)C(=O)Nc1cc(-c2cnoc2-c2cc(OC)c(OC)c(OC)c2)ccc1OC` (stereo not drawn) [Compound 173, 2-amino-N-(2-methoxy-5-(5-(3,4,5-trimethoxyphenyl)isoxazol-4-yl)phenyl)butanamide Hydrochloride], the IC50 in assay [1] (setting [4]) came to 2 nM; in assay [2] (setting [5]), 0.1 nM; in assay [3] (Homo sapiens, MDR1, 72 h), 0.1 nM.

Regarding `COc1ccc(-c2cnoc2-c2cc(OC)c(OC)c(OC)c2)cc1NC(=O)C(N)CC(C)C` (stereo not drawn) [Compound 175, 2-amino-N-(2-methoxy-5-(5-(3,4,5-trimethoxyphenyl)isoxazol-4-yl)phenyl)-4-methylpentanamide Hydrochloride], the IC50 in assay [1] (setting [4]) was determined as 5 nM; in assay [2] (setting [5]), 0.1 nM; in assay [3] (Homo sapiens, MDR1, 72 h), 0.1 nM.

Regarding `COc1ccc(CC(N)C(=O)Nc2cc(-c3cnoc3-c3cc(OC)c(OC)c(OC)c3)ccc2OC)cc1` (stereo not drawn) [Compound 176, 2-amino-N-(2-methoxy-5-(5-(3,4,5-trimethoxyphenyl)isoxazol-4-yl)phenyl)-3-(4-methoxyphenyl)propanamide], the IC50 in assay [1] (setting [6]) came to 64 nM; in assay [2] (Homo sapiens, MES-SA, 72 h), 0.1 nM; in assay [3] (Homo sapiens, MDR1, 72 h), 0.1 nM.

As to `COc1ccc(-c2cnoc2-c2cc(OC)c(OC)c(OC)c2)cc1OP(=O)(O)O` [Compound 177, 2-methoxy-5-[5-(3,4,5-trimethoxy-phenyl)-isoxazol-4-yl)-phenyl dihydrogen phosphate], the IC50 in assay [1] (HL60 (Leukemia), 72 hours) amounted to 52 nM; in assay [2] (Homo sapiens, MES-SA, 72 h), 8 nM; in assay [3] (Homo sapiens, MDR1, 72 h), 4 nM.

In the case of `COc1ccc(-c2cnoc2-c2cc(OC)c(OC)c(OC)c2)cc1NC(=O)C(C)N` (stereo not drawn) [Compound 204, 2-amino-N-(2-methoxy-5-(5-(3,4,5-trimethoxyphenyl)isoxazol-4-yl)phenyl)propanamide Hydrochloride], the IC50 in assay [1] (HL60 (Leukemia), 72 hours, Hydrochloride) was determined as 500 nM; in assay [2] (72 hours, Hydrochloride) it was 106 nM; in assay [3] (72 hours, Hydrochloride) it was 120 nM.

With `COC(=O)CNCC(=O)Nc1cc(-c2cnoc2-c2cc(OC)c(OC)c(OC)c2)ccc1OC` [Compound 241, methyl 2-(2-(2-methoxy-5-(5-(3,4,5-trimethoxyphenyl)isoxazol-4-yl)phenylamino)-2-oxoethylamino)acetate], the IC50 in assay [1] (setting [4]) was found to be 600 nM; in assay [2] (setting [5]), 136 nM; in assay [3] (Homo sapiens, MDR1, 72 h) it was 63 nM.

Take `COc1ccc(-c2cnoc2-c2cc(OC)c(OC)c(OC)c2)cc1NC(=O)CCN` [Compound 243, 3-amino-N-(2-methoxy-5-(5-(3,4,5-trimethoxyphenyl)isoxazol-4-yl)phenyl)propanamide Hydrochloride]: the IC50 was 63 nM in assay [1] (setting [6]); 50 nM in assay [2] (Homo sapiens, MES-SA, 72 h); 38 nM in assay [3] (Homo sapiens, MDR1, 72 h).
